According to patent US20260265341A1, “EPISYNCHRONS FOR PRECISION MEDICINE” (priority 2022, published 2026):
Marks after values point to notes of the source that are not given here. Primed or numbered codes have the meaning given here. Ends that are not written are not given here. * marks the point of attachment. GW4064″ = FXR ligand, CC(C)c1onc(-c2c(Cl)cccc2Cl)c1COc1ccc(/C=C/c2cccc(C(=O)*)c2)c(Cl)c1; RARβ/γ ligand = not defined here; Decanoyl = CCCCCCCCCC(=O)*; bexarotene″ = RXR ligand; GW4064(3) = FXR ligand; GW7647 = PPARα ligand

Tests used:
Format in all cases: cell-based
[1] = test system: HFF-1 cell line; assay: Collagen stimulating activity (COL1A1 ELISA of supernatants); conditions: peptide 2 uM, 72 hour, supernatant anti-COL1A1 ELISA
Protocol: Immodulin peptides have potential untility in the field of cosmetics. HFF-1 cell line from American Type Culture Collection (ATCC) was grown in DMEM Medium containing 10% fetal bovine serum and penicillin-streptomycin at 37° C. in a humidified, 5% CO2 incubator. 2,000 cells/well were plated in a 96-well plate and incubated overnight. 10 ul/well of peptides (2 uM final concentration) were added in quadruplicate wells. After 72 hour incubation with the compound, supernatants were collected and immunoreactivity was measured by ELISA using monoclonal anti-COL1A1 antibody (Abcam, Cambridge, MA). * p<0.05, ** p<0.01 vs no peptide.

[2] = test system: A549; assay: Cancer cell viability (CellTiterGlo), A549; conditions: RXR modulators each at 0.5 uM with peptide imm3A1 0.66 uM, 72 hour; untreated=100
Protocol: (§1) A375, A549 and HuT78 cancer cell lines was obtained from American Type Culture Collection (ATCC). They were grown in a T-75 flask in DMEM (or IMDM, for HuT78) medium containing 10% fetal bovine serum and penicillin-streptomycin at 37° C. in a humidified, 5% CO2 incubator. Cells (100 µl, 2,000 cells/well; 5,000 cells/well for HuT78) were plated in a 96-well plate and incubated overnight at 37° C. in a humidified, 5% CO2 incubator. Next day, 10 ul/well of compounds were added (quadruplicate wells). After 72 hour incubation with the compound, cell viability was measured in a luminometer by addition of 100 µL/well CellTiterGlo reagent (Promega Inc, Madison, WI) and reading chemiluminescence after 10 mins, as recommended by the manufacturer. Peptide imm3A1 ([…]-[…]) was added at 0.66 uM and RXR modulators, each at 0.5 uM. The results of this experiment are shown below, expressed as percent survival of cells (untreated=100).

[3] = test system: A375; assay: Cancer cell viability (CellTiterGlo), A375; conditions: RXR modulators each at 0.5 uM with peptide imm3A1 0.66 uM, 72 hour; untreated=100
Protocol: as §1

[4] = test system: HuT78; assay: Cancer cell viability (CellTiterGlo), HuT78; conditions: RXR modulators each at 0.5 uM with peptide imm3A1 0.66 uM, 72 hour; untreated=100
Protocol: as §1

[5] = test system: C2C12 myoblast cell line; assay: C2C12 myoblast differentiation assay (creatine kinase); design: CK (units/mg): unit not given here; conditions: for CK (units/mg): peptide(s) 0.66 uM, no free added ligand, 96 h, relative to imm3SVD (=100)
Protocol: C2C12 myoblast cell line (ATCC, Manassas, VA) was cultured in DMEM medium supplemented with 10% FBS and 1% penicillin/streptomycin. For differentiation, cells were cultured in the same medium, except that 10% FBS was replaced by 2% horse serum. Peptides and NR ligands were added at the indicated concentrations and cells were harvested 96 hours later for assay. Cell extracts were assayed for creatine kinase (CK) per mg protein. CK was measured using the ECPK-100 kit from BioAssay Systems (Hayward, CA). Protein was assayed using the BCA protein assay kit from Thermofisher Scientific (Waltham, MA).

Compound: IM3K9: peptide AFNSYELGSKGFYKKKQCRPSKGRKRGFCW
- COL1 ng/ml [1]: 0.57 ± 0.13** ng/ml

Compound: CN1c2ccccc2N=C(c2ccc(C(=O)O)cc2)c2cc3c(cc21)C(C)(C)CCC3(C)C [HX600]
- percent survival of cells, A549 [2]: 60.0 ± 0.6 a percent
- percent survival of cells, A375 [3]: 57.1 ± 0.6 a percent
- percent survival of cells, HuT78 [4]: 48.7 ± 2.8 a percent

Compound: imm3ppa: SDKKGFYKKKQCRPSKGRKRGFCWSVDK with C-lig GW7647 (PPARα ligand) on C-terminal lysine (SDKKGFYKKKQCRPSKGRKRGFCWSVDK(GW7647); cysteine pairing not given here)
- CK (units/mg) [5]: 155.9 ± 18.8

Compound: imm3fxr: SDKKGFYKKKQCRPSKGRKRGFCWSVDK with C-lig GW4064 (FXR ligand) (SDKKGFYKKKQCRPSKGRKRGFCWSVDK-{GW4064(3)}; cysteine pairing not given here)
- CK (units/mg) [5]: 136.8 ± 19.6

Compound: CN1c2ccc([N+](=O)[O-])cc2N=C(c2ccc(C(=O)O)cc2)c2cc3c(cc21)C(C)(C)CCC3(C)C [HX531]
- percent survival of cells, A549 [2]: 89.2 ± 4.1 b percent
- percent survival of cells, A375 [3]: 89.9 ± 1.6 a percent
- percent survival of cells, HuT78 [4]: 88.1 ± 0.8%

Compound: IM3dec: (decanoic)-KKGFYKKKQCRPSKGRKRGFCW, N-lig PPARγ (Decanoyl-KKGFYKKKQCRPSKGRKRGFCW; cysteine pairing not given here)
- COL1 ng/ml [1]: 0.41 ± 0.11* ng/ml

Compound: imm3decK9adp: multisynchron SAFNSYELGSDKKGFYKKKQCRPSKGRKRGFCWS, N-lig PPARγ, C-lig RARβ/γ (Decanoyl-SAFNSYELGSDKKGFYKKKQCRPSKGRKRGFCWS-{RARβ/γ ligand}; cysteine pairing not given here; reading uncertain)
- COL1 ng/ml [1]: 5.27 ± 0.36** ng/ml

Compound: IM3: peptide KKGFYKKKQCRPSKGRKRGFCW
- COL1 [1]: 0.28 ± 0.23 ng/mL

Compound: imm3fxr-bex: fxr-SDKKGFYKKKQCRPSKGRKRGFCWSVDK-[bex]: GW4064 at N-terminus, bexarotene at C-terminus; multisynchron ({GW4064″}-SDKKGFYKKKQCRPSKGRKRGFCWSVDK-{bexarotene″}; cysteine pairing not given here)
- performance in cell culture assays ([5]; single peptide compared with combination of imm3fxr and imm3bex): performs as predicted from the performance of the combination of imm3fxr and imm3bex episynchrons

Compound: imm3bex: SDKKGFYKKKQCRPSKGRKRGFCWSVDK with C-lig bexarotene (RXR ligand) (SDKKGFYKKKQCRPSKGRKRGFCWSVDK-{bexarotene″}; cysteine pairing not given here)
- CK (units/mg) [5]: 121.0 ± 6.6
